Reference: ChEMBL document CHEMBL3407493, “Medicinal uses, phytochemistry and pharmacology of family Sterculiaceae: a review” (Eur J Med Chem, 2015)
Converted amounts (≈) assume the structure as drawn.

Columns and labels:
[1] = test system: SK-MEL-28; test: Cytotoxicity against human SK-MEL-28 cells assessed as growth inhibition; assay type: functional, cell-based
[2] = Toxicity in Artemia salina Linn.; assay type: organism-based; conditions: in vivo
[3] = test system: Klebsiella pneumoniae; test: Antibacterial activity against Klebsiella pneumoniae ATCC 10031; assay type: functional
[4] = test system: Escherichia coli; test: Antibacterial activity against Escherichia coli ATCC 11103; assay type: functional
[5] = Antibacterial activity against Salmonella setubal ATCC 19196; assay type: functional, Salmonella enterica subsp. enterica serovar Setubal; conditions: Salmonella enterica
[6] = test system: Liver microsome; test: Antioxidant activity in rat liver microsomes assessed as inhibition of NADPH-dependent lipid peroxidation; assay type: functional
[7] = Antioxidant activity assessed as DPPH radical scavenging activity; assay type: physicochemical
[8] = Antioxidant activity assessed as inhibition of linoleic acid autooxidation; assay type: physicochemical
[9] = Cytotoxicity against human Bel7402 cells assessed as growth inhibition; assay type: functional, cell-based; conditions: Bel-7402

Row | SMILES | IC50 [6] [µg/mL] | IC50 [7] [µg/mL] | IC50 [8] [µg/mL] | other results
1 | C=C(C)[C@@H]1CC[C@]2(C(=O)O)CC[C@]3(C)[C@H](CC[C@@H]4[C@@]5(C)CC[C@H](OC(=O)/C=C/c6ccc(O)c(O)c6)C(C)(C)[C@@H]5CC[C@]43C)[C@@H]12 | – | – | – | IC50 [1]: 81700 nM
2 | CC1=C2OC[C@@H](C)c3c(O)cc(C)c(c32)C(=O)C1=O | – | – | – | LC50 [2]: 50.7 µg/mL (≈ 196 µM)
3 | CC(C)CC(C(=O)NC1C(=O)NC(Cc2ccccc2)C(=O)N/C=C\c2ccc(cc2)OC1C(C)C)N(C)C (configuration not stated) | – | – | – | MIC [3]: 25 µg/mL (≈ 46.8 µM); MIC [4]: 25 µg/mL (≈ 46.8 µM); MIC [5]: 50 µg/mL (≈ 93.5 µM)
4 | COc1cc(C)c2oc(=O)c(C)cc2c1C(C)C | – | – | – | LC50 [2]: 24.2 µg/mL (≈ 98.2 µM)
5 | Cc1cc2c(C(C)C)c(O)cc(C)c2oc1=O | – | – | – | LC50 [2]: 0.61 µg/mL (≈ 2.63 µM)
6 | Cc1c2c3c(ccc(C)c3oc1=O)C(C)CO2 (configuration not stated) | – | – | – | LC50 [2]: 188 µg/mL (≈ 816 µM)
7 | Oc1cc(O)c2c(c1)O[C@H](c1ccc(O)c(O)c1)[C@H](O)[C@H]2c1c(O)cc(O)c2c1O[C@H](c1ccc(O)c(O)c1)[C@H](O)[C@H]2c1c(O)cc(O)c2c1O[C@H](c1ccc(O)c(O)c1)[C@H](O)[C@H]2c1c(O)cc(O)c2c1O[C@H](c1ccc(O)c(O)c1)[C@H](O)C2 | 25 (≈ 21.6 µM) | 2.1 (≈ 1.82 µM) | 2.7 (≈ 2.34 µM) | –
8 | OC[C@H]1O[C@@H](O[C@H]2[C@H]3c4c(O)cc(O)cc4O[C@]2(c2ccc(O)c(O)c2)Oc2cc(O)c4c(c23)O[C@H](c2ccc(O)c(O)c2)[C@H](O)C4)[C@H](O)[C@@H](O)[C@H]1O | 18 (≈ 24.4 µM) | 3.9 (≈ 5.28 µM) | 2.5 (≈ 3.38 µM) | –
9 | Oc1cc(O)c2c(c1)O[C@]1(c3ccc(O)c(O)c3)Oc3cc(O)c4c(c3[C@H]2[C@@H]1O[C@@H]1OC[C@@H](O)[C@H](O)[C@H]1O)O[C@H](c1ccc(O)c(O)c1)[C@H](O)C4 | 21 (≈ 29.6 µM) | 3.9 (≈ 5.5 µM) | 2.2 (≈ 3.1 µM) | –
10 | OC[C@H]1O[C@@H](O[C@@H]2[C@@H]3c4c(O)cc(O)cc4O[C@]2(c2ccc(O)c(O)c2)Oc2cc(O)c4c(c23)O[C@H](c2ccc(O)c(O)c2)[C@H](O)[C@H]4c2c(O)cc(O)c3c2O[C@H](c2ccc(O)c(O)c2)[C@H](O)C3)[C@H](O)[C@@H](O)[C@H]1O | 36 (≈ 35.1 µM) | 2.4 (≈ 2.34 µM) | 2 (≈ 1.95 µM) | –
11 | Oc1cc(O)c2c(c1)O[C@]1(c3ccc(O)c(O)c3)Oc3cc(O)c4c(c3[C@@H]2[C@H]1O[C@@H]1OC[C@@H](O)[C@H](O)[C@H]1O)O[C@H](c1ccc(O)c(O)c1)[C@H](O)[C@H]4c1c(O)cc(O)c2c1O[C@H](c1ccc(O)c(O)c1)[C@H](O)C2 | 28 (≈ 28.1 µM) | 2.3 (≈ 2.31 µM) | 1.9 (≈ 1.91 µM) | –
12 | C=C(C)[C@@H]1CC[C@]2(C(=O)O)CC[C@]3(COC(=O)c4ccccc4)[C@H](CC[C@@H]4[C@@]5(C)CC[C@H](OC(C)=O)C(C)(C)[C@@H]5CC[C@]43C)[C@@H]12 | – | – | – | IC50 [1]: 32000 nM
13 | Oc1cc(O)c2c(c1)O[C@H](c1ccc(O)c(O)c1)[C@H](O)[C@H]2c1c(O)cc2c(c1O)C[C@@H](O)[C@@H](c1ccc(O)c(O)c1)O2 | 12 (≈ 20.7 µM) | 2.3 (≈ 3.98 µM) | 2.3 (≈ 3.98 µM) | –
14 | CC1=Cc2c(C(C)C)ccc(C)c2C(=O)C1=O | – | – | – | LC50 [2]: 2.08 µg/mL (≈ 9.11 µM)
15 | Cc1c(C)c2c(c(C)c1O)CCC(C)(CCCC(C)CCCC(C)CCCC(C)C)O2 (racemic) [alpha-TOCHOPHEROL] | 5.6 (≈ 13 µM) | 4.6 (≈ 10.7 µM) | 7.7 (≈ 17.9 µM) | –
16 | Oc1cc(O)c2c(c1)O[C@H](c1ccc(O)c(O)c1)[C@H](O)C2 [(-)-EPICATECHIN] | 29 (≈ 99.9 µM) | 0.62 (≈ 2.14 µM) | 0.62 (≈ 2.14 µM) | –
17 | O=C(N[C@H](CO)[C@H](O)c1ccc([N+](=O)[O-])cc1)C(Cl)Cl [CHLORAMPHENICOL] | – | – | – | MIC [3]: 1.56 µg/mL (≈ 4.83 µM); MIC [4]: 3.12 µg/mL (≈ 9.66 µM); MIC [5]: 3.12 µg/mL (≈ 9.66 µM)
18 | CC(C)(O)/C=C/C(=O)[C@](C)(O)[C@H]1[C@H](O)C[C@@]2(C)[C@@H]3CC=C4[C@@H](C[C@H](O)C(=O)C4(C)C)[C@]3(C)C(=O)C[C@]12C [CUCURBITACIN D] | – | – | – | IC50 [9]: 1410 nM; IC50 [1]: 1220 nM
19 | CC1(C)C(=O)[C@@H](O)C[C@@H]2C1=CC[C@@H]1[C@@]2(C)C(=O)C[C@]2(C)[C@@H]([C@@](C)(O)C(=O)CC(O)C(C)(C)O)[C@H](O)C[C@@]12C (some centres not stated) [CUCURBITACIN G] | – | – | – | IC50 [9]: 1370 nM; IC50 [1]: 1280 nM
20 | CC1=Cc2c(c(C)cc(O)c2C(C)C)C(=O)C1=O [MANSONONE G] | – | – | – | LC50 [2]: 64.4 µg/mL (≈ 263 µM)
21 | Oc1cc(O)c2c(c1)O[C@H](c1ccc(O)c(O)c1)[C@H](O)[C@H]2c1c(O)cc(O)c2c1O[C@H](c1ccc(O)c(O)c1)[C@H](O)C2 [PROCYANIDIN B2] | 12 (≈ 20.7 µM) | 1.4 (≈ 2.42 µM) | – | –
22 | Oc1cc(O)c2c(c1)O[C@H](c1ccc(O)c(O)c1)[C@H](O)[C@H]2c1c(O)cc(O)c2c1O[C@H](c1ccc(O)c(O)c1)[C@H](O)[C@H]2c1c(O)cc(O)c2c1O[C@H](c1ccc(O)c(O)c1)[C@H](O)C2 [PROCYANIDIN C1] | 68 (≈ 78.5 µM) | 6.2 (≈ 7.15 µM) | 5.3 (≈ 6.11 µM) | –
